The source of these data is patent publication US12187716B2, “TYK2 kinase inhibitors” (SAREUM LIMITED, priority 2018, dated 2025).

Data set [1] in a line: Hepatocyte stability assay, dog. Particulars: male, Beagle, pooled hepatocytes, 37° C. Type of data set: in vitro ADME. How it is done: Test and control compounds were incubated with hepatocytes at 37° C. Aliquots were removed at 6 timepoints over a one hour period. Samples were centrifuged and the supernatant fractions analysed for parent compound by mass spectrometry (LC-MS/MS).
The amount of compound remaining (expressed as %) was determined from the MS response in each sample relative to that in the T=0 samples, and used to determine the half-life and intrinsic clearance of the compound.

Another data set addresses JAK2 (Homo sapiens, UniProt O60674). The data set can be described thus: JAK2 kinase inhibition assay (33P-ATP filter binding, Reaction Biology). Particulars: for selectivity for TYK2 compared to JAK2: biochemical assays; for Selectivity v TYK2: JAK2: ratio of JAK2 IC50 to TYK2 IC50.

pIC50: −log10 of the molar value.

Sequence of JAK2 (O60674 809-1132): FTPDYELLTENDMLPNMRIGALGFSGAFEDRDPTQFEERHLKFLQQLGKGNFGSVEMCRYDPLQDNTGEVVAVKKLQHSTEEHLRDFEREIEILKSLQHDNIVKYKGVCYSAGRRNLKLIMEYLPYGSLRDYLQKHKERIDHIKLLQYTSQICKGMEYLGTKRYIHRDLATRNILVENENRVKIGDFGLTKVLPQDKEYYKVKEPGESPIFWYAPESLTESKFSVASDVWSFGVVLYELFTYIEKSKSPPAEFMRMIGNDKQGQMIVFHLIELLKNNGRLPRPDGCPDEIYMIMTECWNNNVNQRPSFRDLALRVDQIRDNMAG

A word on the hepatocyte CLint: it is a measure of how fast metabolising enzymes remove a compound, apart from limits set by blood flow. Read a high hepatocyte CLint as rapid turnover. Take `NC(=O)c1nc(-c2c(Cl)cccc2Cl)oc1Nc1ccc(C(=O)N2CCOCC2)cc1` [Comparative Compound B, 2-(2,6-dichloro-phenyl)-5-[4-(morpholine-4-carbonyl)-phenylamino]-oxazole-4-carboxylic acid amide, reference compound]: the hepatocyte CLint in data set [1] was 29.8 µL/min/1e6 cells.

For orientation: pIC50 means the IC50 on a negative log10 scale, so that one unit is a factor of ten. A high value points to a low IC50. Consider `NC(=O)c1nc(-c2c(Cl)cccc2Cl)oc1Nc1ccc(C(=O)N2CCS(=O)(=O)CC2)c(F)c1` [Compound (3)], for which, on JAK2, the pIC50 is 6.82, the “selectivity for TYK2 compared to JAK2” value is “approximately 32 fold” and the “Selectivity v TYK2: JAK2” value turned out to be 32.5. The same compound gave a hepatocyte CLint in data set [1] of 8.8 µL/min/1e6 cells. For the same compound, in data set [1] (read-out: Dog T1/2), the half-life is 3.08 h.

`NC(=O)c1nc(-c2c(Cl)cccc2Cl)oc1Nc1ccc(C(=O)N2CCS(=O)(=O)CC2)cc1` [Compound (2)]: on JAK2, the pIC50 is 7.30, the “selectivity for TYK2 compared to JAK2” value is listed as “approximately 25 fold” and the “Selectivity v TYK2: JAK2” value amounted to 26.3.
